The values that follow come from patent US20220340976A1, “RAPID PREDICTION OF DRUG RESPONSIVENESS” (THE BROAD INSTITUTE, INC., priority 2019, published 2022).

Assay [1] concerns pools of well-characterized cancer cell lines. Description: MIX-Seq: scRNA-seq transcriptional response profiling of drug-treated cell line pools. The format is cell-based, human. The conditions noted are these: for shared viability-related signature (cell-cycle genes): across compounds, 24 hours post-treatment. The protocol: Cell line pools were made in sets of 25 cell lines. These 25 cell line pools were chosen based on doubling time and were grown in RPMI in the absence of phenol red and with 10% FBS. Cell lines were then washed with 10 mLs of PBS, and trypsinized with 1 mL trypsin which was then removed. Ten mLs of RPMI media were added to the cells post trypsinization and resuspended. Cells were then counted by a Nexcelom cellometer using 10 uL of cell suspension and 10 ul of Trypan blue. Equal numbers of cells per cell line were mixed together and spun down at 1,250 RPM for 5 minutes. Media was aspirated and the cells were resuspended in Sigma Cell Freezing media and frozen in 1 mL aliquots. This process was repeated for all of the 25 cell line pools. For MIX-Seq experiments involving larger pools, multiple 25 cell line pools were thawed in RPMI with 10% FBS, spun down and resuspended in 5 mLs of RPMI media. Cells were then counted and equal numbers were combined together on the day of plating to form larger pools of up to ˜100 cell lines.
For drug treatment experiments, cell line pools were cultured in RPMI containing 10% fetal bovine serum, in the absence of phenol red and penicillin/streptomycin. Cell line pools were validated as Mycoplasma free prior to initiating the experiment. Cell line pools were plated at 200,000 cells per well in 6 well plates containing 2 mL of RPMI culture media described above. […] Cell pools were plated ˜16-20 hours prior to drug treatment. Cells were treated with the described drugs or vehicle (DMSO) with a 0.2% final media DMSO concentration.
Generally cells were harvested after drug treatment using standard cell culture methods. Briefly, after drug treatment cells that were in suspension (presumably containing dead cells from drug treatment) were collected and reserved for addition to the adherent cell fraction. Adherent cells were washed once with 1×PBS, trypsinized in 1 mL trypsin, incubated for 3-7 minutes at 37 C, and then trypsin inactivated with 1 mL growth media. For Cell Hashing, cells were treated with TrypLE Express (ThermoFisher) instead of trypsin to reduce the amount of cell surface proteins digested that may affect the binding of Cell Hashing antibodies.
After trypsinization, adherent and suspension cells were combined for each treatment, pelleted, and resuspended in Cell Capture Buffer (lx PBS with 0.04% BSA). Cells were counted (including trypan blue non-viable cells) and resuspended at a concentration of 1,000 cells per microliter for standard loading on the Chromium Controller (10× Genomics), or at 1,500 cells per microliter for “super loaded” samples. Up to 40,000 cells were loaded per 10× channel for “super loaded” samples, with expected recovery of up to 20,000 cells per channel. Cell suspensions were captured on a 10× Chromium controller using Single Cell 3′ reagent chemistries (either version 2 or and version 3 reagents) FIG. 26.
Sequencing data were processed using 10× Cell Ranger software, run using the Cumulus cloud-based analysis framework (Li et al. 2019). Initial experiments were done with 10× Single Cell 3′ v2 chemistry, and were processed using version 2 of the Cell Ranger software. In later experiments v3 chemistry and the corresponding version 3 of Cell Ranger were used. Reads were aligned to the hg19 reference genome.
To estimate the average transcriptional response of each cell line to a perturbation, the data were first ‘sum-collapsed’—summing read counts across cells for each cell line and treatment condition—to produce a bulk RNA-seq style read counts profile for each sample (Crowell et al. 2019; Lun & Marioni 2017). […]

Assay [2] relates to pools of cancer cell lines. Description: Single-cell heterogeneity analysis of drug responses (clustering of scRNA-seq profiles). In kind it is cell-based, human. The note with it: of the 24 cell lines in the pool, 24 hours after treatment. An excerpt:
Specifically, the edgeR quasi-likelihood approach was used (Lun et al. 2016), following the pipeline in Soneson et al. 2018, with the cell detection rate (the fraction of genes with non-zero reads detected) included as a covariate.
To identify subpopulations of bortezomib treated cells (FIGS. 4D-4F), Seurat's default methods were used to normalize the data, detect variable genes, and compute PCs (using 5000 most variable genes, and 50 PCs). Seurat's default clustering methods were then used to cluster cells for each cell line (using the 20 nearest neighbors, and a clustering resolution parameter of 0.25).
To identify sub-populations of cells from a given cell line in a consistent fashion across baseline and treatment conditions (for analysis and presentation in FIG. 19), the following procedure was employed. After restricting to cells from the target cell line, the scTransform method (Hafemeiester et al. 2019) was used to normalize the data, identify 5,000 variable genes, and regress out experimental condition as a covariate to align clusters across conditions. Seurat's default clustering methods (using the top 10 PCs, 20 nearest neighbors, and a clustering resolution parameter of 0.25) were then used to identify clusters jointly across treated and control cells.

The subject of assay [3] is cancer cell lines. The note with it: GDSC and PRISM drug sensitivity data; cited from earlier work.
Assay [4] relates to pools of cancer cell lines. Kind of assay: Cell cycle phase analysis inferred from single-cell transcriptional profiles (MIX-Seq). The format is cell-based, human. The note with it: for change in proportion of cells in G2/M phase / change in proportion of cells in S phase: 24 hours post-treatment, average weighted by drug sensitivity. Here is the method:
Cell cycle phase classification was performed using the Seurat function CellCycleScoring, using the S- and G2M-phase gene lists reported in Tirosh et al. 2016. The change in proportion of cells in each phase between treatment and control conditions for each cell line, along with associated confidence intervals, were estimated using the prop.test R function. For FIG. 4C, aggregate scores were computed representing how each compound altered the cell cycle composition by computing weighted averages across cell lines of the change in proportion of cells in each phase, where the weights were determined by the cell lines' measured drug sensitivity (1 minus AUC, bounded between 0 and 1).
For example, characterizing the cell cycle effects of a perturbation yields important information about its MoA. Such measurements have heretofore typically been made using a FACS-based assay, which must be performed on each sample independently and cannot be used to relate cell cycle effects post hoc to other phenotypes without advanced planning. Using MIX-Seq, such measurements can be made in parallel across a pool of cell lines, inferring the cell cycle phase of each cell from its transcriptional profile (Tirosh et al. 2016).
Next, the effects of each compound on the cell cycle were systematically assessed (see Example 1 above). […] Two notable exceptions were the DNA-damaging agent gemcitabine and the CHEK1/2 inhibitor prexasertib.

Setting [5] is: 24 hours post-treatment (FIGS. 9B, 9C).

Values joined by “and” are separate entries in the source; they are usually repeats but may differ in a detail not shown here. Identical values can stand only once. “Also recorded” adds a separate entry of the source.

For `CC(C)C[C@H](NC(=O)[C@H](Cc1ccccc1)NC(=O)c1cnccn1)B(O)O` [bortezomib], the “gene sets enriched in across-cell-line average transcriptional response” value (“gene sets enriched” for short) in assay [1] (6 hours post-treatment (FIG. 9A)) is “strong up-regulation of protein folding and heat-shock response pathways”. In assay [1], the “shared viability-related signature (cell-cycle genes)” value (“shared viability-related signature” for short) is “shared signature was also apparent”. In addition, in assay [2], the “number of cell lines showing a bimodal response” value is 10 and 9.
For the molecule `CC1(C)CCC(c2ccc(Cl)cc2)=C(CN2CCN(c3ccc(C(=O)NS(=O)(=O)c4ccc(N[C@H](CCN5CCOCC5)CSc5ccccc5)c(S(=O)(=O)C(F)(F)F)c4)cc3)CC2)C1` [navitoclax], in assay [1] (6 and/or 24 hours post-treatment), the “robust transcriptional response signature” value is “did not produce strong and/or selective transcriptional responses; also recorded: did not produce robust transcriptional response signatures; also recorded: a robust transcriptional response to navitoclax was not observed”. The “long-term viability response across cell lines” value in assay [3] is listed as “strong selective viability responses”.
For the molecule `Cc1sc2c(c1C)C(c1ccc(Cl)cc1)=N[C@@H](CC(=O)OC(C)(C)C)c1nnc(C)n1-2` [JQ-1], the “shared viability-related signature” value in assay [1] was “shared signature was also apparent”.
For `CC(C)(C)c1nc(-c2cccc(NS(=O)(=O)c3c(F)cccc3F)c2F)c(-c2ccnc(N)n2)s1` [dabrafenib], the “variability of transcriptional responses among sensitive cell lines” value in assay [1] (BRAF-mutant melanoma cell lines, 24 hour post-treatment) was “substantial variation”.
In the case of `COc1cccc(OCCCN)c1-c1cc(Nc2cnc(C#N)cn2)n[nH]1` [prexasertib], in assay [1], the “shared viability-related signature” value is “shared signature was also apparent”. For the same molecule, in assay [4], the “change in proportion of cells in G2/M phase” value is “slightly increased the fraction of G2/M cells” and the “change in proportion of cells in S phase” value is “decreased the proportion of S-phase cells”.
In the case of `CO[C@H]1C[C@@H]2CC[C@@H](C)[C@@](O)(O2)C(=O)C(=O)N2CCCC[C@H]2C(=O)O[C@H]([C@H](C)C[C@@H]2CC[C@@H](OCCO)[C@H](OC)C2)CC(=O)[C@H](C)/C=C(\C)[C@@H](O)[C@@H](OC)C(=O)[C@H](C)C[C@H](C)/C=C/C=C/C=C/1C` [everolimus], the “gene sets enriched” value in assay [1] (setting [5]) is listed as “mTOR signaling was the top down-regulated gene set”.
As for `COc1ccc(C2=NC(c3ccc(Cl)cc3)C(c3ccc(Cl)cc3)N2C(=O)N2CCNC(=O)C2)c(OC(C)C)c1` (centres unmarked) [nutlin], the “average drug-induced changes in gene expression for each cell line” value in assay [1] (TP53 WT cell lines (7) in a pool of 24 cell lines) is “robust response; also recorded: strong gene expression changes”. Also, in assay [1] (among TP53 WT cell lines), the “gene set enrichment analysis of average transcriptional response, down-regulated” value was “down-regulation of cell cycle processes” and the “gene set enrichment analysis of average transcriptional response, up-regulated” value was “clear up-regulation of genes in the TP53 downstream pathway”. Moreover, the “average drug-induced changes in gene expression for each cell line” value in assay [1] (cell lines harboring TP53 mutations (n=17) in a pool of 24 cell lines) was “only minimal changes; also recorded: weak gene expression changes”. The “change in proportion of cells in G0/G1” value in assay [4] (pool of 24 cell lines, TP53 WT vs TP53 mutant) was “pronounced G0/G1-arrest phenotype selectively among the TP53 WT cell lines; also recorded: elicits G1-arrest selectively among the TP53 WT cell lines”.
Take `Nc1ccn([C@@H]2O[C@H](CO)[C@@H](O)C2(F)F)c(=O)n1` [gemcitabine]: the “gene sets enriched” value in assay [1] (setting [5]) is recorded as “altered expression of apoptosis-related genes”. Moreover, the “shared viability-related signature” value in assay [1] was “shared signature was also apparent”. In addition, in assay [4], the “change in proportion of cells in G2/M phase” value is “decreased the proportion of cells in G2/M” and the “change in proportion of cells in S phase” value was “increase in S-phase cells”.
